Bounds are passed on as bounds.

The subject of one assay is Lone star tick larvae (Amblyomma americanum). Description: Larval immersion microassay against larval-stage Lone star ticks. As to conditions: 0.3 mM, larval immersion microassay, 24 hours. The method, then: The larval immersion microassay was conducted as described in detail in White, et al., J. Med. Entomol. 41: 1034-1042 (2004). Compounds of the invention were formulated in dimethylsulfoxide (DMSO) to prepare a stock solution at a concentration of at least 10 mM. Using 96-well microtiter plates, an aliquot of the mM sample was subsequently diluted in a water-based solution containing 1% ethanol and 0.2% Triton X-100, to obtain the desired concentration (typically 0.3 mM or lower) of compound in a volume of 0.1 ml (minimum n=3 replicates per compound or concentration). Approximately 30-50 Lone star tick larvae (Amblyomma americanum) were submerged into each well containing compounds. After a 30 minute immersion period, larvae were removed with a wide-bore pipette tip in 0.05 ml of fluid, dispensed into a commercial paper tissue biopsy bag which was sealed at the top with a plastic dialysis clip, inverted and allowed to air dry for 60 minutes. Bags containing larvae were then incubated at approximately 27 degrees Celsius and >90% relative humidity. After 24 hours, bags were opened, live and dead larvae were counted and percent larval mortality was calculated.
7 and 8 contain one chiral center each, and are racemic mixtures comprised of approximately 50% R- and 50% S-enantiomer. In vitro and surrogate animal (rat) studies were conducted to evaluate the biological activity of the R- and S-enantiomers of 7 and 8. For the in vitro study, larvae of the Lone star tick (Amblyomma americanum) were exposed to 9, 10, 11 and 12 using the larval immersion microassay at a concentration of no greater than 0.3 mM. Following exposure, larvae were removed, transferred to a tissue biopsy bag and incubated at approximately 27 degrees Celsius and >90% relative humidity. After 24 hours, biopsy bags were opened and the numbers of live and dead larvae were determined
In the case of `Cc1cc(C2=NO[C@](c3cc(Cl)c(F)c(Cl)c3)(C(F)(F)F)C2)ccc1C(=O)NCc1ccc2c(c1)B(O)OC2(C)C` [Compound 12, (R)-4-(5-(3,5-Dichloro-4-fluorophenyl)-5-(trifluoromethyl)-4,5-dihydroisoxazol-3-yl)-N-((1-hydroxy-3,3-dimethyl-1,3-dihydrobenzo[c][1,2]oxaborol-6-yl)methyl)-2-methylbenzamide], the “In vitro activity at 0.3 mM” value worked out at 0.0%.
Still for that read-out and setting: under `Cc1cc(C2=NO[C@](c3cc(Cl)c(Cl)c(Cl)c3)(C(F)(F)F)C2)ccc1C(=O)NCc1ccc2c(c1)B(O)OC2(C)C` [Compound 10, (R)—N-((1-hydroxy-3,3-dimethyl-1,3-dihydrobenzo[c][1,2]oxaborol-6-yl)methyl)-2-methyl-4-(5-(3,4,5-trichlorophenyl)-5-(trifluoromethyl)-4,5-dihydroisoxazol-3-yl)benzamide] stands 0.0%.

Still in this assay, the particulars now being: Amblyomma americanum, 24 h, read-out: activity (percent larval mortality).
One may read the mortality as the share of the test organisms that died. As for `Cc1cc(C2=NOC(c3cc(Cl)cc(Cl)c3)(C(F)(F)F)C2)ccc1C(=O)NCc1ccc2c(c1)B(O)OC2` (centres unmarked) [Compound 4, 4-(5-(3,5-Dichlorophenyl)-5-(trifluoromethyl)-4,5-dihydroisoxazol-3-yl)-N-((1-hydroxy-1,3-dihydrobenzo[c][1,2]oxaborol-6-yl)methyl)-2-methylbenzamide], the mortality at 300 µM was not below 80%.
On to `Cc1cc(C2=NOC(c3cc(Cl)c(F)c(Cl)c3)(C(F)(F)F)C2)ccc1C(=O)NCCc1ccc2c(c1)B(O)OC2(C)C` (centres unmarked) [Compound 20, 4-(5-(3,5-Dichloro-4-fluorophenyl)-5-(trifluoromethyl)-4,5-dihydroisoxazol-3-yl)-N-(2-(1-hydroxy-3,3-dimethyl-1,3-dihydrobenzo[c][1,2]oxaborol-6-yl)ethyl)-2-methylbenzamide], for which the mortality at 300 µM is not below 80%.
Still for that read-out and setting: next, `CCC1(CC)OB(O)c2cc(CNC(=O)c3ccc(C4=NOC(c5cc(Cl)cc(Cl)c5)(C(F)(F)F)C4)cc3C)ccc21` (centres unmarked) [Compound 13, 4-(5-(3,5-Dichlorophenyl)-5-(trifluoromethyl)-4,5-dihydroisoxazol-3-yl)-N-((3,3-diethyl-1-hydroxy-1,3-dihydrobenzo[c][1,2]oxaborol-6-yl)methyl)-2-methylbenzamide]: not below 80%; `Cc1cc(C2=NOC(c3cc(Cl)cc(Cl)c3)(C(F)(F)F)C2)ccc1C(=O)NCc1ccc2c(c1)B(O)OC2(CF)CF` (centres unmarked) [Compound 16, N-((3,3-Bis(fluoromethyl)-1-hydroxy-1,3-dihydrobenzo[c][1,2]oxaborol-6-yl)methyl)-4-(5-(3,5-dichlorophenyl)-5-(trifluoromethyl)-4,5-dihydroisoxazol-3-yl)-2-methylbenzamide]: not below 80%; `Cc1cc(C2=NOC(c3cc(Cl)c(Cl)c(Cl)c3)(C(F)(F)F)C2)ccc1C(=O)NCc1ccc2c(c1)B(O)OC2(CF)CF` (centres unmarked) [Compound 17a, N-((3,3-Bis(fluoromethyl)-1-hydroxy-1,3-dihydrobenzo[c][1,2]oxaborol-6-yl)methyl)-2-methyl-4-(5-(3,4,5-trichlorophenyl)-5-(trifluoromethyl)-4,5-dihydroisoxazol-3-yl)benzamide]: not below 80%.
Still for that read-out and setting: under `Cc1cc(C2=NOC(c3cc(Cl)c(Cl)c(Cl)c3)(C(F)(F)F)C2)ccc1C(=O)NC(C)c1ccc2c(c1)B(O)OC2(C)C` (centres unmarked) [Compound 22a, N-(1-(1-Hydroxy-3,3-dimethyl-1,3-dihydrobenzo[c][1,2]oxaborol-6-yl)ethyl)-2-methyl-4-(5-(3,4,5-trichlorophenyl)-5-(trifluoromethyl)-4,5-dihydroisoxazol-3-yl)benzamide] stands not below 80%; under `Cc1cc(C2=NOC(c3cc(Cl)c(Cl)c(Cl)c3)(C(F)(F)F)C2)ccc1C(=O)NCc1cc(F)c2c(c1)B(O)OC2(C)C` (centres unmarked) [Compound 24, N-((4-fluoro-1-hydroxy-3,3-dimethyl-1,3-dihydrobenzo[c][1,2]oxaborol-6-yl)methyl)-2-methyl-4-(5-(3,4,5-trichlorophenyl)-5-(trifluoromethyl)-4,5-dihydroisoxazol-3-yl)benzamide], not below 80%; under `Cc1cc(C2=NOC(c3cc(Cl)c(Cl)c(Cl)c3)(C(F)(F)F)C2)ccc1C(=O)NCCc1ccc2c(c1)B(O)OC2(C)C` (centres unmarked) [Compound 19, N-(2-(1-Hydroxy-3,3-dimethyl-1,3-dihydrobenzo[c][1,2]oxaborol-6-yl)ethyl)-2-methyl-4-(5-(3,4,5-trichlorophenyl)-5-(trifluoromethyl)-4,5-dihydroisoxazol-3-yl)benzamide], not below 80%.
For the compound `Cc1cc(C2=NOC(c3cc(Cl)c(Cl)c(Cl)c3)(C(F)(F)F)C2)ccc1C(=O)NCc1ccc2c(c1)C(C)(C)OB2O` (centres unmarked) [Compound 1, N-((1-Hydroxy-3,3-dimethyl-1,3-dihydrobenzo[c][1,2]oxaborol-5-yl)methyl)-2-methyl-4-(5-(3,4,5-trichlorophenyl)-5-(trifluoromethyl)-4,5-dihydroisoxazol-3-yl)benzamide], the mortality at 300 µM is not below 80%.
The same measure, in the same setting: next, `Cc1cc(C2=NOC(c3cc(Cl)cc(Cl)c3)(C(F)(F)F)C2)ccc1C(=O)NCc1ccc2c(c1)C(C)(C)OB2O` (centres unmarked) [Compound 2, 4-(5-(3,5-Dichlorophenyl)-5-(trifluoromethyl)-4,5-dihydroisoxazol-3-yl)-N-((1-hydroxy-3,3-dimethyl-1,3-dihydrobenzo[c][1,2]oxaborol-5-yl)methyl)-2-methylbenzamide]: not below 80%.
The same measure, in the same setting: under `CCC1(CC)OB(O)c2cc(CNC(=O)c3ccc(C4=NOC(c5cc(Cl)c(F)c(Cl)c5)(C(F)(F)F)C4)cc3C)ccc21` (centres unmarked) [Compound 14, 4-(5-(3,5-Dichloro-4-fluorophenyl)-5-(trifluoromethyl)-4,5-dihydroisoxazol-3-yl)-N-((3,3-diethyl-1-hydroxy-1,3-dihydrobenzo[c][1,2]oxaborol-6-yl)methyl)-2-methylbenzamide] stands not below 80%; under `Cc1cc(C2=NOC(c3cc(Cl)c(Cl)c(Cl)c3)(C(F)(F)F)C2)ccc1C(=O)NCc1ccc2c(c1)B(O)OC21CCCC1` (centres unmarked) [Compound 18, N-((1-Hydroxy-1H-spiro[benzo[c][1,2]oxaborole-3,1′-cyclopentan]-6-yl)methyl)-2-methyl-4-(5-(3,4,5-trichlorophenyl)-5-(trifluoromethyl)-4,5-dihydroisoxazol-3-yl)benzamide], not below 80%.

The values are drawn from US8546357B2, “Boron-containing small molecules for controlling ectoparasites” (priority 2011, dated 2013).
